Where only a bound is given, the exact number is not on record here.

Data set [1] deals with C. sporogenes ATCC 25762 linoleate isomerase. Description: C. sporogenes isomerase activity and stability in extracts with additives. The conditions noted are these: for effect on the stability of the isomerase: PMSF 0.1-1.0 mM, iodoacetamide 1 mM; for effect of chelating agents on enzyme activity and stability: crude extracts, 1 mM. Type of data set: biochemical, Clostridium sporogenes. As for the experimental part: Temperature sensitivity of the isomerase in crude extracts was tested at 4° C., room temperature (˜25° C.) and 37° C. […] The optimum pH was monitored by adjusting the pH from 5.0 to 9.0 using the 0.1M Tris buffer containing 10 mM NaCl, 1 mM DTT and 40 ppm linoleic acid.
The concentration of linoleic acid was tested from 0 to 100 ppm (FIG. 26).
Two different media, BHI and MRS, were tested. […] Protease inhibitors, PMSF (0.1-1.0 mM), iodoacetamide (1 mM) and pepstatin A were tested for their effects on the stability of the isomerase.
It has been reported that solubilization in the presence of lysophosphatidylcholine (LPC) allows higher detergent concentrations to be used, thus allowing more complete membrane protein solubilization. CaCl2 can activate enzymes, such as some nucleases.

Data set [2] deals with L. reuteri PYR8. The experiment in a line: Whole cell biotransformation of linoleic acid to CLA by L. reuteri PYR8. Type of data set: cell-based, Lactobacillus reuteri. The conditions noted are these: nonionic detergent added.
Procedure: Cultures were grown and harvested as described above. Washed cells were resuspended in either fresh growth medium or 0.1 M Tris pH 8.0 buffer containing linoleic acid at various concentrations.
Samples were taken at appropriate intervals and analyzed for CLA as described in Example 2. In some experiments, various detergents were added to 0.1-0.5% final concentration. […] About 5 mL solvent was added to about 20 mL aqueous cell suspension in a 125 mL baffled shake flask incubated at room temperature.
Whole cells of L. reuteri PYR8 were used in all biotransformation experiments described below.
The effect of substrate and product on the enzyme performance was also investigated, as well as the possibility of recycling the cells. The effect of CLA on the reaction was studied by adding different concentrations of either a mixture of isomers (Sigma material, approximately 41% 9,11 isomer and 48% 10,12 CLA), or just 9,11 CLA (Matreya material, approximately 77% 9,11 CLA). Concentrations from 500 to 3000 ppm were tested. Some experiments were also performed recycling the broth from a previous biotransformation reaction with L. reuteri PYR8, resulting in an initial CLA concentration around 700 ppm. In every case, 1000 ppm linoleic acid were added.
In the second experiment, cell recycle was studied with cells that have performed the biotransformation at different levels of linoleic acid. Cells were harvested, resuspended in breakage buffer at a 10-fold concentration, and linoleic acid was added at 1000, 1500, 2000, 2500 and 3000 ppm level. Given the higher linoleic acid concentration, the reaction was allowed to proceed for six hours. […] 1000 ppm linoleic acid were added and the reaction was followed for four hours.
Data set [3] deals with linoleate isomerase from Clostridium sporogenes. Description: C. sporogenes linoleate isomerase kinetic assay, absorbence at 234 nm, partially purified enzyme. Type of data set: biochemical. As for the experimental part: In this experiment, all kinetic experiments were performed in a quartz cuvette (1-cm light-path with a magnetic stirrer) at room temperature using a HP 8452A diode array spectrophotometer. The cuvette was filled with 1 ml of incubation buffer containing 50 μg protein, 0.1 M potassium phosphate, pH7.5, 10 mM NaCl and 10% 1,2-propane diol. The isomerization was initiated by adding a small aliquot (1-2 μl) of freshly diluted substrate-stock (˜[…] linoleic acid) in 1,2-propane diol at 50 seconds. The increase in absorbence at 234 nm was monitored and recorded. […] The amount of product formed was calculated based on a molar extinction coefficient of 24,000.

The test system of data set [4] is B. fibrisolvens A-38 linoleate isomerase. The conditions noted are these: cited from earlier work.
The target of data set [5] is P. acnes ATCC 6919 linoleate isomerase (Cutibacterium acnes, UniProt Q6A8X5). In kind it is biochemical, Propionibacterium acnes. The conditions noted are these: EDTA 5 mM; 1,10-phenanthroline 1 mM; p-chloromercuribenzoate 5 μM; N-ethylmaleimide 100 μM. As to the method: Formation of CLA was determined by measuring the absorbence at 234 nm. […] Generally, the isomerase was assayed using an endpoint assay after 30 to 60 minutes incubation at room temperature. FIG. 18 (time course assay at different linoleic acid levels) and FIG. 19 (end point assay at different linoleic acid levels) show the effect of increasing substrate concentration on formation of […].
P. acnes ATCC 6919 linoleate isomerase, sequence (Q6A8X5 entry or part of it): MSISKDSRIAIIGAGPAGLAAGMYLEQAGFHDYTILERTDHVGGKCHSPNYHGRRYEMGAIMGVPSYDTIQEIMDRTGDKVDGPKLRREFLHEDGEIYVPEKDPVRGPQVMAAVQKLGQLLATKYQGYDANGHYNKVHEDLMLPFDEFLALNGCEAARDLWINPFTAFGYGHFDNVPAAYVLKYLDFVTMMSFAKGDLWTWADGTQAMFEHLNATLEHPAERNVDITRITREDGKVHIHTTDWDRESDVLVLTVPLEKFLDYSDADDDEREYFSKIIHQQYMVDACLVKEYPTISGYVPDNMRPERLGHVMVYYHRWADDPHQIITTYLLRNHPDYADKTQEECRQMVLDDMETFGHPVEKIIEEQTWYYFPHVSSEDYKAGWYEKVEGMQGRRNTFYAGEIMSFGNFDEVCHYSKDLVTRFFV

Data set [6] is described as follows: Linoleate isomerase characterization (Table 7B), enzymes compared on linoleic acid. Type of data set: biochemical. As to the method:
Table 7B is a summary of the kinetic data and characterization of linoleate isomerases from P. acnes (crude extract prior to DEAE purification as in Example 11, except that the Vmax was determined using enzyme purified through the chromatofocusing step as in Example 11), L. reuteri (enzyme purified through the gel filtration step as in Example 3), and C. sporogenes (enzyme purified through the gel filtration step as in Example 17), all isolated by the present inventors, and the B. fibrisolvens A-38 linoleate isomerase (crude extract; Kepler and Tove, 1967, J. Biochem. 242:5686-5692). The substrate in these experiments was linoleic acid.

[7] abbreviates: compound as substrate at 10 PPM, activity with linoleic acid set as 100%.
Where [8] appears, read: compound as substrate, Kepler and Tove (1967).
Setting [9] is: substrate linoleic acid, purified enzyme.

In the case of pepstatin A, the “effect on the stability of the isomerase” value in data set [1] is given as “None provided measurable benefit”.

As to Triton X-100, in data set [2], the “effect on (cis,trans)-9,11-CLA formation” value is listed as “does not significantly increase”.

As to `CCCCCCCC/C=C\CCCCCCCC(=O)O` [oleic acid, (cis)-9 octadecenoic acid], the type of inhibition result in data set [3] (0, 24 and 48 μM oleic acid, varied linoleic acid, Lineweaver-Burke and Hanes-Woolf plots) is reported as “uncompetitive inhibitor”; in data set [4] (reported by Kepler and Tove) it was “competitive inhibition”. The “isomerase activity in the presence of inhibitor” value in data set [3] (70 μM oleic acid (20 PPM)) is listed as “almost completely lost”. Further, the “RELATIVE ACTIVITY %” value is listed as 25% in data set [3] (compound added at 35 μM, substrate LA 35 μM, pH 7.5, LA alone = 100%) and 0% in data set [3] (setting [7]). Also, the Ki (in general, a measure of affinity in units of concentration, obtained from inhibition or displacement) in data set [3] (inhibition of linoleic acid isomerization, calculated from secondary plots, read-out: inhibition constants (Ki)) is 23.8 µM.

With `c1cnc2c(c1)ccc1cccnc12` [1,10-phenanthroline], in data set [5], the “inhibition of isomerase activity” value is reported as “not inhibited”. In addition, the “effect of chelating agents on enzyme activity and stability” value in data set [1] was “protected”.

As to `CCCCCCCC/C=C\CCCCCCCC(=O)OCCOCC(OCCO)C1OCC(OCCO)C1OCCO` (stereo not shown) [Tween-80], in data set [2], the “effect on (cis,trans)-9,11-CLA formation” value is reported as “does not significantly increase”.

As to `[Ca+2].[Cl-].[Cl-]` [CaCl2], the “effect on enzyme activity” value in data set [1] (Tris and phosphate buffer systems) is listed as “decreased the enzyme activity”.

As to `CC/C=C\C/C=C\C/C=C\CCCCCCCC(=O)O` [linolenic acid, (cis, cis, cis)-9, 12, 15 octadecatrienoic acid], the Vmax was 811 nmole/min/mg protein in data set [3] (compound as substrate) and 130 nmole/min/mg protein in data set [4] (setting [8]). Besides, the “RELATIVE ACTIVITY %” value in data set [3] (setting [7]) turned out to be 84%. In addition, the Km (as a rule, the concentration of substrate that gives half-maximal velocity) is 22.5 µM in data set [3] (compound as substrate, read-out: Km) and 23 µM in data set [4] (setting [8]). The “substrate has an inhibitory effect at concentrations above” value in data set [3] (substrate concentration dependency of isomerization) was > 40 µM.

Regarding `O=S(=O)(F)Cc1ccccc1` [PMSF], in data set [1], the “effect on the stability of the isomerase” value is “None provided measurable benefit”.

In the case of `NC(=O)CI` [iodoacetamide], the “effect on the stability of the isomerase” value in data set [1] is on record as “None provided measurable benefit”.

Regarding `O=C(O)CN(CCN(CC(=O)O)CC(=O)O)CC(=O)O` [EDTA], in data set [1], the “effect of chelating agents on enzyme activity and stability” value is listed as “negative effect”.

B1: L. reuteri: (cis, trans)-9,11-linoleate isomerase from Lactobacillus reuteri PYR8, SEQ ID NO:18 (protein, listed as Lactobacillus reuteri)
chain: MYYSNGNYEAFARPKKPAGVDKKHAYIVGGGLAGLSAAVFLIRDAQMPGENIHILEELPVAGGSLDGEDRPGIGFVTRGGREMENHFECMWDMYRSIPSLEIPGASYLDEYYWLDKEDPNSSNCRLTYKRGNEVPSDGKYGLSKKAIKELTKLIMTPEEKLGRETIGEYFSDDFFESNFWIYWSTMFAFERWHSLAEMRRYMMRFIHHIDGLPDFTALKFNKYNQYESMTKPLLAYLKDHHVKIEYDTQVKNVIVDTHGRQKHAKRILLTQAGKDKVVELTDNDLVFVTNGSITESSTYGSHHQAARPTQALGGSWKLWENLARQSADFGHPDVFCKNLPGRSWFISATATVKNPQVEPYIERLTKRDLHDGKVNTGGIITVTDSNWMLSWTIHRQPHFKKQKKNETIVWIYGLYSNTKGNYIKKRIVDCTGEEITKEWLSIWGFQKPLIDDLAKESSINTVPVYMPFITSYFMPRVKGDRPDVVPEGSANLAFIGNFAESPSRDTVFTTEYSVRTAMEAVYTLLDVDRGVPEVFNSIYDLRELMRAMYYMNDKKPLKDMDLPIPKIVEKPLLKKLQGTWIGELMEQQHLL
For B1, the “CLA Isomer” value in data set [6] (CLA isomer produced from linoleic acid) is on record as 9,11. The “Optimal pH” value in data set [6] (substrate linoleic acid) was 7.5. In data set [6] (setting [9]), the Km came out at 8.1 µM and the Vmax is 880^5 nmol/min/mg.

These data come from patent US20050003383A1, “Linoleate isomerase” (Arkion Life Sciences LLC d/b/a Bio-Technical Resources …, priority 1999, published 2005).
